Test results: PubChem BioAssay (NCI)
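The compound was tested at five concentrations on cells cultured in 96-well plates, with a 48-hour exposure period. GI50 marks 50% less growth. TGI denotes the concentration required for complete inhibition of growth.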

Assays:
Assay in all cases: inhibition of tumour cell growth, NCI panel, 48 h
HCT-15 colon = test system: HCT-15 colon
NCI-H522 lung = test system: NCI-H522 lung
NCI-H23 lung = test system: NCI-H23 lung
U251 CNS = test system: U251 CNS
M14 melanoma = test system: M14 melanoma
LOX IMVI melanoma = test system: LOX IMVI melanoma
A498 renal = test system: A498 renal
MDA-MB-435 = test system: MDA-MB-435
BT-549 breast = test system: BT-549 breast
NCI-H226 lung = test system: NCI-H226 lung
DU-145 prostate = test system: DU-145 prostate
OVCAR-8 ovarian = test system: OVCAR-8 ovarian
ACHN renal = test system: ACHN renal
A549 NSCLC = test system: A549 NSCLC
NCI-H460 lung = test system: NCI-H460 lung
HT29 colon = test system: HT29 colon
IGROV1 ovarian = test system: IGROV1 ovarian
MALME-3M melanoma = test system: MALME-3M melanoma
TK-10 renal = test system: TK-10 renal
SF-295 CNS = test system: SF-295 CNS
PC-3 prostate = test system: PC-3 prostate
SNB-19 CNS = test system: SNB-19 CNS
OVCAR-4 ovarian = test system: OVCAR-4 ovarian
T-47D breast = test system: T-47D breast
HL-60(TB) leukemia = test system: HL-60(TB) leukemia
HOP-62 NSCLC = test system: HOP-62 NSCLC
K-562 leukemia = test system: K-562 leukemia
RPMI-8226 leukemia = test system: RPMI-8226 leukemia
NCI/ADR-RES ovarian = test system: NCI/ADR-RES ovarian
SF-539 CNS = test system: SF-539 CNS
SR leukemia = test system: SR leukemia
SW-620 colon = test system: SW-620 colon
786-0 renal = test system: 786-0 renal
MDA-MB-468 breast = test system: MDA-MB-468 breast
MCF7 breast = test system: MCF7 breast
SN12C renal = test system: SN12C renal
HCC-2998 colon = test system: HCC-2998 colon
OVCAR-5 ovarian = test system: OVCAR-5 ovarian
SK-MEL-28 melanoma = test system: SK-MEL-28 melanoma
HS 578T breast = test system: HS 578T breast
SF-268 CNS = test system: SF-268 CNS
RXF 393 renal = test system: RXF 393 renal
HOP-92 NSCLC = test system: HOP-92 NSCLC
COLO 205 colon = test system: COLO 205 colon
UACC-257 melanoma = test system: UACC-257 melanoma
OVCAR-3 ovarian = test system: OVCAR-3 ovarian
KM12 colon = test system: KM12 colon
MOLT-4 leukemia = test system: MOLT-4 leukemia
HCT-116 colon = test system: HCT-116 colon
UACC-62 melanoma = test system: UACC-62 melanoma
CCRF-CEM leukemia = test system: CCRF-CEM leukemia
SK-OV-3 ovarian = test system: SK-OV-3 ovarian
CAKI-1 renal = test system: CAKI-1 renal
SK-MEL-5 melanoma = test system: SK-MEL-5 melanoma
EKVX NSCLC = test system: EKVX NSCLC

Work on `N#Cc1c(-c2ccc(F)cc2)nc(SCc2ccc(F)cc2)nc1N1CCNCC1` yielded a GI50 (HCT-15 colon) of 11.7 µM, a TGI (HCT-15 colon) of 24.6 µM and a GI50 (NCI-H522 lung) of 13.9 µM. It also gave a TGI (NCI-H522 lung) of 29.9 µM, a GI50 (NCI-H23 lung) of 16 µM and a TGI (NCI-H23 lung) of 30.4 µM. For the same compound, the GI50 (U251 CNS) was 10.3 µM, the TGI (U251 CNS) was 24.7 µM and the GI50 (M14 melanoma) was 13.6 µM. The TGI (M14 melanoma) was 26.8 µM, the GI50 (LOX IMVI melanoma) was 2.28 µM and the TGI (LOX IMVI melanoma) was 5.69 µM. The GI50 (A498 renal) was 15.3 µM, the TGI (A498 renal) was 29.8 µM and the GI50 (MDA-MB-435) was 16.8 µM. The TGI (MDA-MB-435) was 31.3 µM, the GI50 (BT-549 breast) was 10.7 µM and the TGI (BT-549 breast) was 23 µM. For the same compound, the GI50 (NCI-H226 lung) was 15.9 µM, the TGI (NCI-H226 lung) was 35.7 µM and the GI50 (DU-145 prostate) was 16.8 µM. It also gave a TGI (DU-145 prostate) of 31.3 µM, a GI50 (OVCAR-8 ovarian) of 13.2 µM and a TGI (OVCAR-8 ovarian) of 30.5 µM. The GI50 (ACHN renal) was 15 µM, the TGI (ACHN renal) was 28.5 µM and the GI50 (A549 NSCLC) was 11.5 µM. It also gave a TGI (A549 NSCLC) of 25 µM, a GI50 (NCI-H460 lung) of 14.3 µM and a TGI (NCI-H460 lung) of 29.4 µM. The GI50 (HT29 colon) was 4.87 µM, the TGI (HT29 colon) was 17.3 µM and the GI50 (IGROV1 ovarian) was 15.6 µM. For the same compound, the TGI (IGROV1 ovarian) was 29.8 µM, the GI50 (MALME-3M melanoma) was 14.7 µM and the TGI (MALME-3M melanoma) was 28.4 µM. The GI50 (TK-10 renal) was 15 µM, the TGI (TK-10 renal) was 29.7 µM and the GI50 (SF-295 CNS) was 16.6 µM. For the same compound, the TGI (SF-295 CNS) was 30.9 µM, the GI50 (PC-3 prostate) was 12.5 µM and the TGI (PC-3 prostate) was 27.7 µM. The GI50 (SNB-19 CNS) was 14.9 µM, the TGI (SNB-19 CNS) was 29.4 µM and the GI50 (OVCAR-4 ovarian) was 16.5 µM. It also gave a TGI (OVCAR-4 ovarian) of 33.6 µM, a GI50 (T-47D breast) of 13.8 µM and a TGI (T-47D breast) of 30.4 µM. It also gave a GI50 (HL-60(TB) leukemia) of 7.66 µM, a TGI (HL-60(TB) leukemia) of 24 µM and a GI50 (HOP-62 NSCLC) of 17 µM. The TGI (HOP-62 NSCLC) was 33.4 µM, the GI50 (K-562 leukemia) was 3.76 µM and the TGI (K-562 leukemia) was 17.8 µM. The GI50 (RPMI-8226 leukemia) was 6.75 µM, the TGI (RPMI-8226 leukemia) was 24.6 µM and the GI50 (NCI/ADR-RES ovarian) was 13.7 µM. The TGI (NCI/ADR-RES ovarian) was 30.4 µM, the GI50 (SF-539 CNS) was 15.6 µM and the TGI (SF-539 CNS) was 29 µM. It also gave a GI50 (SR leukemia) of 2.18 µM, a TGI (SR leukemia) of 5.07 µM and a GI50 (SW-620 colon) of 5.97 µM. For the same compound, the TGI (SW-620 colon) was 19.2 µM, the GI50 (786-0 renal) was 13.8 µM and the TGI (786-0 renal) was 29.3 µM. It also gave a GI50 (MDA-MB-468 breast) of 12.4 µM, a TGI (MDA-MB-468 breast) of 26.2 µM and a GI50 (MCF7 breast) of 6.43 µM. For the same compound, the TGI (MCF7 breast) was 20.2 µM, the GI50 (SN12C renal) was 15.3 µM and the TGI (SN12C renal) was 29 µM. The GI50 (HCC-2998 colon) was 2.53 µM, the TGI (HCC-2998 colon) was 6.27 µM and the GI50 (OVCAR-5 ovarian) was 14.5 µM. It also gave a TGI (OVCAR-5 ovarian) of 28 µM, a GI50 (SK-MEL-28 melanoma) of 16.4 µM and a TGI (SK-MEL-28 melanoma) of 30.2 µM. The GI50 (HS 578T breast) was 15.6 µM, the TGI (HS 578T breast) was 34.6 µM and the GI50 (SF-268 CNS) was 14.1 µM. The TGI (SF-268 CNS) was 30.9 µM, the GI50 (RXF 393 renal) was 7.3 µM and the TGI (RXF 393 renal) was 21.4 µM. The GI50 (HOP-92 NSCLC) was 7.64 µM, the TGI (HOP-92 NSCLC) was 22.1 µM and the GI50 (COLO 205 colon) was 1.83 µM. It also gave a TGI (COLO 205 colon) of 3.4 µM, a GI50 (UACC-257 melanoma) of 14.8 µM and a TGI (UACC-257 melanoma) of 28.7 µM. For the same compound, the GI50 (OVCAR-3 ovarian) was 15.5 µM, the TGI (OVCAR-3 ovarian) was 30.8 µM and the GI50 (KM12 colon) was 18 µM. The TGI (KM12 colon) was 33.6 µM, the GI50 (MOLT-4 leukemia) was 10.5 µM and the TGI (MOLT-4 leukemia) was 26 µM. The GI50 (HCT-116 colon) was 4.15 µM, the TGI (HCT-116 colon) was 15.6 µM and the GI50 (UACC-62 melanoma) was 15.9 µM. It also gave a TGI (UACC-62 melanoma) of 29.9 µM, a GI50 (CCRF-CEM leukemia) of 14.8 µM and a TGI (CCRF-CEM leukemia) of 33.6 µM. For the same compound, the GI50 (SK-OV-3 ovarian) was 16 µM, the TGI (SK-OV-3 ovarian) was 29.8 µM and the GI50 (CAKI-1 renal) was 15.3 µM. It also gave a TGI (CAKI-1 renal) of 29 µM, a GI50 (SK-MEL-5 melanoma) of 16.8 µM and a TGI (SK-MEL-5 melanoma) of 30.5 µM. The GI50 (EKVX NSCLC) was 13.1 µM and the TGI (EKVX NSCLC) was 26.4 µM.
